According to ChEMBL document CHEMBL1201862, “PubChem BioAssay data set” (2004):
Calls of active or inactive are those of the source.

What was measured:
[1] = target: T1, Acyl-homoserine lactone acylase PvdQ (Pseudomonas aeruginosa (strain LESB58), UniProt Q9I194); assay: PvdQ acylase enzyme activity blockers – biochemical, fluorescence, plate reader and imaging, cherry-picks, dose response (AID 493231)
T1 sequence (Q9I194 whole entry): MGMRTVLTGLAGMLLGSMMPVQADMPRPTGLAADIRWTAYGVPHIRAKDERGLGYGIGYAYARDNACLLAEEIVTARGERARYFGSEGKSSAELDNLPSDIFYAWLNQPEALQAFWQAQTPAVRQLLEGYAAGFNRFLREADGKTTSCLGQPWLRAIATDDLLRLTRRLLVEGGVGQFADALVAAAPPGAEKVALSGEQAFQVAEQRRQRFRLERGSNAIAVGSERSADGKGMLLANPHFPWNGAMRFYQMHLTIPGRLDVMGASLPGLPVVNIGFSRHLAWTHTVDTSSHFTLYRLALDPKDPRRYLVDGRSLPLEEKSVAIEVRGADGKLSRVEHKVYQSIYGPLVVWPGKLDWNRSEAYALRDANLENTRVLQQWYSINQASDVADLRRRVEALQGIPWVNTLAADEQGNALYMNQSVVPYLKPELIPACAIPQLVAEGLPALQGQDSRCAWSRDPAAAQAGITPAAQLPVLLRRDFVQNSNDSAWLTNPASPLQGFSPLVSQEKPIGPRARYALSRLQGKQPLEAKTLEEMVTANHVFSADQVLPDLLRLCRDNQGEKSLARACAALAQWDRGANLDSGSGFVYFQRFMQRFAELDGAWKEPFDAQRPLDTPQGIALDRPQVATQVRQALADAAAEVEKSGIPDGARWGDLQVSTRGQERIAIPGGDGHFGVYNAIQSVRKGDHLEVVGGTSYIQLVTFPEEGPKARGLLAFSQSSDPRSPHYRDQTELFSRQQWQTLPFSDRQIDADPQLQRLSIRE

[2] = system: HeLa; assay: toxicity to human HeLa cells – cell-based, 48 h, plate reader, cherry-picks, cytotoxicity control, dose response (AID 504942); assay type: functional
[3] = luciferase reporter signal suppression in cells – H4 neuroglioma cells, luminescence, dose response (AID 1990); assay type: functional, cell-based
[4] = Luminescence Cell-Based Dose Response HTS to Identify Inhibitors of 5'UTR Stem-Loop Driven Prion Protein mRNA Translation in H4 Neuroglioblastoma Cells. [Related pubchem assays: 1827 (Project Summary), 1813 (Primary HTS)]; assay type: functional
[5] = alpha-synuclein stem-loop luciferase translation blockers – H4 neuroglioma cells, luminescence, confirmation (AID 1988); assay type: functional, cell-based
[6] = target: T2, Microphthalmia-associated transcription factor (Homo sapiens, UniProt O75030); assay: reducers of TRPM1 reporter luminescence, concentration series – cell-based, SK-MEL-5, cherry-picked, set 3, MITF inhibitor project, dose response (AID 493073); assay type: functional;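 note: SK-MEL-5 melanoma cells with luciferase driven by the MITF target TRPM1 promoter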
T2 sequence (O75030 whole entry): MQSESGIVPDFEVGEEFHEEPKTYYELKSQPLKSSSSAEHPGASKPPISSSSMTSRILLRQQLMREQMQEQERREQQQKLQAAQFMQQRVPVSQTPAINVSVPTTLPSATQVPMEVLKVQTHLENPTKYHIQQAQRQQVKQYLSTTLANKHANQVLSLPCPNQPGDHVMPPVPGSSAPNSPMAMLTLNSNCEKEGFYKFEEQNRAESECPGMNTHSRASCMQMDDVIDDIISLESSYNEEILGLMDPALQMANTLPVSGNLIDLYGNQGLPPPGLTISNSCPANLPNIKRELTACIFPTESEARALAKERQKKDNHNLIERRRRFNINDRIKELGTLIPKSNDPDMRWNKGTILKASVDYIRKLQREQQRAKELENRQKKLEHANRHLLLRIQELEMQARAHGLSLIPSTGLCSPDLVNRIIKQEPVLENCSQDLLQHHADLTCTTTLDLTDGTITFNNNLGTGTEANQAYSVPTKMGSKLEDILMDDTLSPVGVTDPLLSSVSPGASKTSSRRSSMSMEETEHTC

[7] = system: A-375; assay: MITF: Counter assay: A375 proliferation Measured in Cell-Based System Using Plate Reader - 2084-03_Inhibitor_Dose_DryPowder_Activity. [Related pubchem assays (depositor defined):AID488944]; assay type: functional; conditions: Homo sapiens
[8] = system: A-375; assay: proliferation inhibition in MITF-low A375 cells – cell-based, cherry-pick samples, set 2, counter-screen for MITF modulator project, dose response (AID 540335); assay type: functional; conditions: Homo sapiens
[9] = target: Hexokinase-1 (Homo sapiens, UniProt P19367); assay: SAR analysis of small molecule inhibitors of hexokinase domain containing I (HKDC1) in the hexokinase 1 selectivity assay. [Related pubchem assays (depositor defined):AID493160, AID493190]; assay type: functional
[10] = target: Hexokinase HKDC1 (Homo sapiens, UniProt Q2TB90); assay: SAR analysis of small molecule inhibitors of hexokinase domain containing I (HKDC1). [Related pubchem assays (depositor defined):AID493160, AID493190]; assay type: functional
[11] = target: Dual specificity protein kinase CLK1 (Homo sapiens, UniProt P49759); assay: inhibition of human CLK1 activity – biochemical, cherry-picked samples, selectivity assay for Dyrk1A inhibitor project, dose response (AID 588811)
[12] = system: Jurkat; assay: SAR Analysis of small molecule inhibitors of […] specific antigen receptor-induced NF-kB activation in a Jurkat cell line using a luminescence assay - Set 3. [Related pubchem assays (depositor defined):AID435022, AID435025, AID465]; assay type: functional, cell-based; conditions: Homo sapiens
[13] = system: HEK293; assay: SAR Analysis of small molecule inhibitors of B-cell specific antigen receptor-induced NF-kB activation in a HEK-293T cell line using a luminescence assay - Set 2. [Related pubchem assays (depositor defined):AID435022, AID435025, AID489021]; assay type: functional, cell-based; conditions: Homo sapiens
[14] = system: HEK293; assay: HEK293T cell viability loss, resazurin readout – resazurin fluorescence, cytotoxicity control for NF-kB activator project, SAR follow-up (AID 493251); assay type: functional, cell-based; conditions: Homo sapiens
[15] = target: Voltage-gated inwardly rectifying potassium channel KCNH2 (Homo sapiens, UniProt Q12809); conditions: Potency;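 note: confirmatory quantitative high-throughput screen measuring inhibition of hERG channel activity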
[16] = NIH-3T3 fibroblast cytotoxicity, dose response, cytotoxicity control, cell-based, fluorescence, Alamar Blue, secondary assay (AID 2327); assay type: functional;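 note: NIH-3T3 mouse fibroblasts cultured with fluconazole at 8 µg/mL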
[17] = target: T3, SUMO-activating enzyme (Homo sapiens, UniProt Q9UBT2); assay: blockers of UBC9-mediated SUMO conjugation – biochemical, AlphaScreen, SUMOylation inhibitor project, confirmation (AID 2018); assay type: functional
[18] = fluconazole-exposed Candida albicans growth modulators – fluorescence, retest, confirmation (AID 2467); assay type: functional, cell-based
[19] = target: T3, SUMO-activating enzyme; assay: blockers of SAE1/SAE2–UBC9 SUMO transfer – biochemical, HTRF, uHTS, primary screen (AID 2006); assay type: protein-complex assay
[20] = target: Serine/threonine-protein phosphatase (Candida dubliniensis (strain CD36 / CBS 7987 / NCPF 3949 / NRRLY-17841) (Yeast), UniProt B9W6M3); assay: blockers of CaCl2-induced CDRE-lacZ signaling – S. cerevisiae, luminescence, secondary, dose response (AID 2388); assay type: functional, cell-based;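 note: yeast reporter cells carrying a calcineurin-responsive lacZ construct stimulated with calcium chloride; luminescent beta-galactosidase reporter signal in whole cells rather than isolated phosphatase activity; potency for inhibition where a drop in reporter signal means calcineurin blockade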
[21] = target: T4, Mannose-6-phosphate isomerase (Homo sapiens, UniProt P34949); assay: MPI inhibition at elevated mannose 6-phosphate – biochemical, fluorescence intensity, high mannose 6-phosphate, primary screen (AID 1220)
T4 sequence (P34949 whole entry): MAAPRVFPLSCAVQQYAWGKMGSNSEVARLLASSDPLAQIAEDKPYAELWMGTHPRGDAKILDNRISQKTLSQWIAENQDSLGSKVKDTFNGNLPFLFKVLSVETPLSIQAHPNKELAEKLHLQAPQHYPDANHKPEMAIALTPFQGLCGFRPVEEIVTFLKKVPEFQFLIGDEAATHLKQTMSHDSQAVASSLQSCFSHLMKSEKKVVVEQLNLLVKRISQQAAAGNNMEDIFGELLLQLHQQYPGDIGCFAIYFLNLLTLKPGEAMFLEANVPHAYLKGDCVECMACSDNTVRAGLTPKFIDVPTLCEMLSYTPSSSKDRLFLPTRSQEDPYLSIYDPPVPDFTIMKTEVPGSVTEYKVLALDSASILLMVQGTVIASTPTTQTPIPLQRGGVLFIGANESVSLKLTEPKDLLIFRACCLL

[22] = system: Vero; assay: viability of Vero cells under compound – cytotoxicity control for flavivirus capping enzyme inhibitors (AID 588742); assay type: functional; conditions: Chlorocebus sabaeus
[23] = target: ATP-dependent molecular chaperone HSP82 (Candida albicans (strain WO-1) (Yeast), UniProt C4YTQ8); assay: steroid-induced GRE reporter decrease in yeast – S. cerevisiae, luminescence, Hsp90 inhibitor project, dose response (AID 2400); assay type: functional, cell-based;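 note: beta-galactosidase luminescence from glucocorticoid response element reporter as proxy for Hsp90 function; inhibitor potency where signal loss means Hsp90 inhibition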
[24] = target: T5, Histone-lysine N-methyltransferase NSD2 (Homo sapiens, UniProt O96028); assay type: biochemical
T5 sequence (O96028 whole entry): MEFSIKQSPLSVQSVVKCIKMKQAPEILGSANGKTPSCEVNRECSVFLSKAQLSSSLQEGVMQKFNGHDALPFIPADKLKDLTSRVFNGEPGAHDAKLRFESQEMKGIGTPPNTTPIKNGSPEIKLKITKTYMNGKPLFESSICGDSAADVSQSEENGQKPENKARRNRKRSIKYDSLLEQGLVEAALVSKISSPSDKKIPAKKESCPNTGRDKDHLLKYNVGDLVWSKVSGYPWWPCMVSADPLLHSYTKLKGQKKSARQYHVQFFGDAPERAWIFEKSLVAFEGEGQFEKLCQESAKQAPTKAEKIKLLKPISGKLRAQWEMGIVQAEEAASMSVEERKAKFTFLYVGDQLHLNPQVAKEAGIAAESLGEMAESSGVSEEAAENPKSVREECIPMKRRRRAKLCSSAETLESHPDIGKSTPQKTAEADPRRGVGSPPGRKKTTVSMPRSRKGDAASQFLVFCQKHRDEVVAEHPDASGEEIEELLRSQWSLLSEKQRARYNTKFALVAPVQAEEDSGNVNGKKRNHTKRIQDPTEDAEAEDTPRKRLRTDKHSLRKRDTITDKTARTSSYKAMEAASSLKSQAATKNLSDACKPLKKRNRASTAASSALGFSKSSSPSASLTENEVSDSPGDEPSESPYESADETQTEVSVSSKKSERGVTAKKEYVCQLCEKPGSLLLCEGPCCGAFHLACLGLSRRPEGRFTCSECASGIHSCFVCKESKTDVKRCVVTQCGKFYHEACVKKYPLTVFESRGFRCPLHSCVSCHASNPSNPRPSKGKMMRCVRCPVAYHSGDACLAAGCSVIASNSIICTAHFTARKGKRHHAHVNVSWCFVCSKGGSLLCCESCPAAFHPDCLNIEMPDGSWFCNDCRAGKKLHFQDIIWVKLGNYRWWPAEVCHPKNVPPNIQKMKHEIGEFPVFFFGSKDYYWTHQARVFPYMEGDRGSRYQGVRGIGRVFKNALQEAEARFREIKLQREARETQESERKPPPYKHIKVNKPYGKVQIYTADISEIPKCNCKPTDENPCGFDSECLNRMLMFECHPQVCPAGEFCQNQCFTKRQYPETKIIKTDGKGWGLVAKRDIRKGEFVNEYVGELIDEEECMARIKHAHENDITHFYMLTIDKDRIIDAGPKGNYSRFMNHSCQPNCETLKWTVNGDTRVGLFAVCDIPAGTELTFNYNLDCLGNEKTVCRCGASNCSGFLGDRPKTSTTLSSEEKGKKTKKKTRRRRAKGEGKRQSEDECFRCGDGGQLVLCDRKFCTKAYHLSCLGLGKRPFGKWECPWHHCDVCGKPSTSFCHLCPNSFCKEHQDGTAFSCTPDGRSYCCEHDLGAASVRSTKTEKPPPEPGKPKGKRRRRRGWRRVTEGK

T3 sequence (Q9UBE0 whole entry): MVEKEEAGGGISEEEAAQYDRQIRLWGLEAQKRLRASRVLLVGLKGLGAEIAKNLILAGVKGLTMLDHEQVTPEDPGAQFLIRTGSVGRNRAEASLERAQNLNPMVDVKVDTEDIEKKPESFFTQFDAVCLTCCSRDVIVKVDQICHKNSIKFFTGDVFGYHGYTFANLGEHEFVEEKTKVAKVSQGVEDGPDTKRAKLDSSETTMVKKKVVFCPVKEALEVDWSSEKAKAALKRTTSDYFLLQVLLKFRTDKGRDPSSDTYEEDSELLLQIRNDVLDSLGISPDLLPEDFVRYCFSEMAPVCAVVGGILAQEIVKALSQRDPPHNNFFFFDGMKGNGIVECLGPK
T3 sequence (Q9UBT2 whole entry): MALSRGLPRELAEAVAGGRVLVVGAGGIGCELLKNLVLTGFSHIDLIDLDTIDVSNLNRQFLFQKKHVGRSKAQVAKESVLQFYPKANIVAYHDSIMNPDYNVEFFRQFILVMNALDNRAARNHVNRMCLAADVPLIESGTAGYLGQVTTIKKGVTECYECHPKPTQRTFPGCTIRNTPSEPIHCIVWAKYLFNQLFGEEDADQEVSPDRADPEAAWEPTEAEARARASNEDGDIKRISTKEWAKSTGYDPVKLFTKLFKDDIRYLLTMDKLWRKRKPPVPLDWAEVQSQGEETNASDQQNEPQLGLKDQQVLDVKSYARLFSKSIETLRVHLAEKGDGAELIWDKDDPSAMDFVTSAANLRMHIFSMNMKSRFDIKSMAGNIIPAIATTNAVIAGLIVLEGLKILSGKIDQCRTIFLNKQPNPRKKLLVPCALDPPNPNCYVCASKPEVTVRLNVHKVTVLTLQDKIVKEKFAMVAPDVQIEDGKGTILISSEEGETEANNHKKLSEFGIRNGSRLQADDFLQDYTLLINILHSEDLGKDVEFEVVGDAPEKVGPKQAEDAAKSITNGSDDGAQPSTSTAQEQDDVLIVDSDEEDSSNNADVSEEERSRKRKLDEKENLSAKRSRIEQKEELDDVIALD
Chain of Dual specificity protein kinase CLK1 (P49759 whole entry): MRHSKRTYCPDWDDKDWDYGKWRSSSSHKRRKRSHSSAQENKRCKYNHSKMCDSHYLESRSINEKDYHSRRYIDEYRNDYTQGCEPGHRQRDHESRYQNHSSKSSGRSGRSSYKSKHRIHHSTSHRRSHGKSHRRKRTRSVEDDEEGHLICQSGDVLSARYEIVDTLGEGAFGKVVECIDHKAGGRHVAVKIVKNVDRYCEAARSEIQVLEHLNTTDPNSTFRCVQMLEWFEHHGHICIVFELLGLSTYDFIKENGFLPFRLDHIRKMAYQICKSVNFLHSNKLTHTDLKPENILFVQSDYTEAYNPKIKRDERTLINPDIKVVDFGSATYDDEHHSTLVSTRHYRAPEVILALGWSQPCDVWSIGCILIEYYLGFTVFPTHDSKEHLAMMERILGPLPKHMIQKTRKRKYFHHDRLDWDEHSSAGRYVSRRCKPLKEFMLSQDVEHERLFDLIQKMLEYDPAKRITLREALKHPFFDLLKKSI
Chain of Serine/threonine-protein phosphatase (B9W6M3 whole entry): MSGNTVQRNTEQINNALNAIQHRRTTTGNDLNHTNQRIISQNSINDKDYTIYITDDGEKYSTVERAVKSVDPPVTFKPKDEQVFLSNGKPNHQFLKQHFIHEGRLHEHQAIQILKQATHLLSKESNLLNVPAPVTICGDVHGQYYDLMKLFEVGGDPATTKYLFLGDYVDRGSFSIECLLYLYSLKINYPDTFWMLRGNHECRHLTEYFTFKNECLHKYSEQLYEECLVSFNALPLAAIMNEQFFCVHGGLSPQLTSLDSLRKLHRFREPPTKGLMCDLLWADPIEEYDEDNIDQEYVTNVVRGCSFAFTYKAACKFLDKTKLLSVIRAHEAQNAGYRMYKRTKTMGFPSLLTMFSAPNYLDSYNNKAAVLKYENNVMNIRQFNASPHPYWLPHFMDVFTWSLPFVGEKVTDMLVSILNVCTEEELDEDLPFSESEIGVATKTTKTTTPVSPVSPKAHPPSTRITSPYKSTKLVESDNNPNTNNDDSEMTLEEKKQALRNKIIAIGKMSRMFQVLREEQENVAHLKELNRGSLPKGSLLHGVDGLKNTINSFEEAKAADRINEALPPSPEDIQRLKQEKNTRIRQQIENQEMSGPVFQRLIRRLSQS
Chain of ATP-dependent molecular chaperone HSP82 (C4YTQ8 whole entry): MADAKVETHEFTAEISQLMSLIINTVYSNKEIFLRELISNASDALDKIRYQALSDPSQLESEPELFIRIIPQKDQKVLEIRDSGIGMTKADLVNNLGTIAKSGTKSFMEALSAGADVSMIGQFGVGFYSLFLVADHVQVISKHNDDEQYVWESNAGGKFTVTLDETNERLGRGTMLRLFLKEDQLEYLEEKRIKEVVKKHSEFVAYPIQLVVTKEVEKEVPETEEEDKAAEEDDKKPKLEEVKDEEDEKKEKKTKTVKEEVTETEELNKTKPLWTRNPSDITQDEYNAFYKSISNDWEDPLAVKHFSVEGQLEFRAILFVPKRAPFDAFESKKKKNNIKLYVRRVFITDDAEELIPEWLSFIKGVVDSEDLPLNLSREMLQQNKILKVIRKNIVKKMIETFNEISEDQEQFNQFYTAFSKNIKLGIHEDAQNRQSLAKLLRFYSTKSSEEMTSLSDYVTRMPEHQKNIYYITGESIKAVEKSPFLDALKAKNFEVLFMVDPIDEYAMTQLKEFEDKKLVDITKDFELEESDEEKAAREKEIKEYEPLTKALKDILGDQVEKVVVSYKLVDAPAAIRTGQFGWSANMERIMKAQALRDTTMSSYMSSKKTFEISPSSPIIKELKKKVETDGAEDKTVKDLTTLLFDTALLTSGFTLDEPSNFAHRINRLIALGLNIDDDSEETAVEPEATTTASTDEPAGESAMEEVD
Chain of Hexokinase-1 (P19367 whole entry, the tested form may be a part): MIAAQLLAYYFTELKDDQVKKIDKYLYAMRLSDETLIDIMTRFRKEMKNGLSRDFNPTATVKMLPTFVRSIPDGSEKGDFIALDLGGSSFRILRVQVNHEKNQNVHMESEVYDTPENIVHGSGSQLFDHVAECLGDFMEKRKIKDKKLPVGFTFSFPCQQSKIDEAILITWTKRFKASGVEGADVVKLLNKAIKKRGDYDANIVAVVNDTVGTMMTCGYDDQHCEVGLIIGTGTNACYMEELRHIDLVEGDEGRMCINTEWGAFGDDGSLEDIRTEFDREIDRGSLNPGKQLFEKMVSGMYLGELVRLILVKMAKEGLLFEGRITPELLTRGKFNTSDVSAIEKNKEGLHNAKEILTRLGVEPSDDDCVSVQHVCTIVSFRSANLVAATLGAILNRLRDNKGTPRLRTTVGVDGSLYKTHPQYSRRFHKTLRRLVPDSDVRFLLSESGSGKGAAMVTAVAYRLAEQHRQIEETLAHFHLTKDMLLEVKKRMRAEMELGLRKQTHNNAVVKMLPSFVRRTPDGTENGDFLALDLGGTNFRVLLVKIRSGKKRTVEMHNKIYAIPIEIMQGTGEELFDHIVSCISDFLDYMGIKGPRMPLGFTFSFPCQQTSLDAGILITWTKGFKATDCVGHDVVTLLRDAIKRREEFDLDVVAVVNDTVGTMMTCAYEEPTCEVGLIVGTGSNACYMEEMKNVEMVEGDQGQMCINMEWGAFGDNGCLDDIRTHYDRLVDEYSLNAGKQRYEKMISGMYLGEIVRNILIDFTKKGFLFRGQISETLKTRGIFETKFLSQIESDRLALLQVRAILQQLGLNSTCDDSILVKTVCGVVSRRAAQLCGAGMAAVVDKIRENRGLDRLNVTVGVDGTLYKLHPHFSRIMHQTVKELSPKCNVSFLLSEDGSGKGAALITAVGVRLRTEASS
Chain of Hexokinase HKDC1 (Q2TB90 whole entry, the tested form may be a part): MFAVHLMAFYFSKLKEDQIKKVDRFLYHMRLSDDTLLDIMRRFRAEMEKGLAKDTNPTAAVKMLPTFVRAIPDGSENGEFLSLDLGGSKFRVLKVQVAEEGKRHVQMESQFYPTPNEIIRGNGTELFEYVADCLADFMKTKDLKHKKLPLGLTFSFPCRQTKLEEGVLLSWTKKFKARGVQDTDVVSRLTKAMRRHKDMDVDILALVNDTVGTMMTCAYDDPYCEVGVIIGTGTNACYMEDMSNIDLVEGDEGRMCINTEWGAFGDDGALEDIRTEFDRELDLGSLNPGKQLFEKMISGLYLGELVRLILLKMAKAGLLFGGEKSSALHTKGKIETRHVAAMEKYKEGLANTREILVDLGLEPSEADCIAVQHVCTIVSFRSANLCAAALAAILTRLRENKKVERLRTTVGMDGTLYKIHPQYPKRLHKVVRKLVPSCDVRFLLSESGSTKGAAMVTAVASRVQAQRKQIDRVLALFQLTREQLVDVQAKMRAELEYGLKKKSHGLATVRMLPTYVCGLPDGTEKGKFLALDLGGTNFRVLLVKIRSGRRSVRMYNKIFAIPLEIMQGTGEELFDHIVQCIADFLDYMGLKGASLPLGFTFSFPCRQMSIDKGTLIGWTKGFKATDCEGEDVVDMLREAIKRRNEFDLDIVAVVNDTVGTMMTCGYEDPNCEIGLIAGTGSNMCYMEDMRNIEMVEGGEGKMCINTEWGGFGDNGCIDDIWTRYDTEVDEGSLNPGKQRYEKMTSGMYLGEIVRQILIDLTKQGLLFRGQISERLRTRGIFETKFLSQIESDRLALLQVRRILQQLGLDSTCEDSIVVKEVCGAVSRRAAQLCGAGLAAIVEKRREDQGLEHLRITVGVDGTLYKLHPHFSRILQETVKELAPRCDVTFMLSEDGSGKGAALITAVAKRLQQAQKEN

COc1ccc(-c2cc3ncccc3cn2)cc1
AC50 [1]: 7.13 µM (active)
AC50 [2]: 72.9 µM (active)

CC(=O)c1ccc(S(=O)(=O)N2CCN(C(=O)/C=C/c3ccc4ccccc4n3)CC2)cc1
EC50 [3]: 13.4 µM (active)
EC50 [4]: 11.8 µM (active)
EC50 [5]: 10.3 µM (active)
AC50 [6]: 12 µM (active)
AC50 [7]: > 35 µM (active)
AC50 [8]: > 35 µM (active)

Cc1ccc(S(=O)(=O)Nc2cc(SCCC(=O)O)c(O)c3ccccc23)cc1
IC50 [9]: > 80 µM (inactive)
IC50 [10]: 10 µM (active)

Clc1ccc(CNc2nccc(-c3ccc4c(c3)OCCO4)n2)cc1Cl
AC50 [11]: 0.0206 µM (active)

CCOc1ccc(-c2nc(CSCC(=O)NCC3CCCO3)c(C)o2)cc1 (centres undefined)
IC50 [12]: > 80 µM (inactive)
IC50 [13]: 67.7 µM (inactive)
IC50 [14]: > 80 µM (inactive)

COC(=O)c1c(-c2cc(OC)c(OC)c(OC)c2)c2ccc(OCc3ccccn3)cc2c(=O)n1-c1ccc(N)cc1
AC50 [15]: 5.62 µM (inconclusive)

CN(C)c1cc(N/N=C/c2ccc(Cl)cc2)nc(N(C)C)n1
EC50 [16]: > 160 µM (inactive)
IC50 [17]: 1 µM (active)
EC50 [18]: 0.401 µM (active)
IC50 [19]: 14.2 µM (active)
EC50 [20]: > 180 µM (inactive)
IC50 [21]: > 50 µM (not active)
CC50 [22]: > 40 µM (active)
EC50 [23]: > 160 µM (inactive)
AC50 [24]: 6.18 µM (active)
